Entries after “also recorded” stand apart in the source; their conditions may differ.
Tests used:
visceral adipocytes = assay: LipocyteProfiler of isoproterenol-treated vs DMSO-treated visceral adipocytes (AMSCs, day 14); type: cell-based, human; conditions: for BODIPY-related Granularity (lipid droplet sizes): isoproterenol vs DMSO, across the full granularity size spectra
Description: For imaging, cells were seeded at 10K cells/well in 96-well plates (Cell Carrier, Perkin Elmer #6005550) and induced 4 days after seeding. For RNAseq, cells were seeded at 40K cells/well in 12-well dishes (Corning). […] Adipogenic differentiation was induced by changing culture medium to induction medium. […] Visceral-derived AMSCs were differentiated by further adding 2% FBS as well as 0.1 mM oleic and linoleic acid to the induction and differentiation media. For isoproterenol stimulation experiments, 1 μM isoproterenol was added to the differentiation media and cells treated overnight. Human primary AMSCs and PHH were plated in 96-well CellCarrier plates (Perkinelmer #6005550). AMSCs were differentiated for 14 days and high content imaging was performed at day 0, day 3, day 8 and day 14 of adipogenic differentiation. Primary human hepatocytes were stained after 48 h in culture, and 24h following treatment with oleic acid or metformin. On the respective day of the assay, cell culture media was removed and replaced by 0.5 μM Mitotracker staining solution (1 mM MitoTracker Deep Red stock (Invitrogen #M22426) diluted in culture media) to each well followed by 30 minutes incubation at 37° C.' protected from light. […] PFA was removed and cells were washed once with Hank's Balanced Salt Solution (1×), HBSS (Gibco #14025076). […] Finally, staining solution was removed and cells were washed three times with HBSS. Cells were imaged using a Opera Phenix High content screening system. […] Prior to processing, flat field illumination correction was performed using functions generated from the median intensity across each plate. Nuclei were identified using the DAPI stain and then expanded to identify whole cells using the Phalloidin/WGA and BODIPY stains. Regions of cytoplasm were then determined by removing the Nuclei from the Cell segmentations. Speckles of BODIPY staining were enhanced to assist in detection of small and large individual Lipid objects. For each object set measurements were collected representing size, shape, intensity, granularity, texture, colocalization and distance to neighbouring objects. After LipocyteProfiler (LP) feature extraction data was filtered by applying automated and manual quality control steps. […] Second, every field was assessed visually and fields that were corrupted by experimental induced technical artifacts were removed. Furthermore, blocklisted features (Way, Gregory (2019): Blocklist Features-Cell Profiler. figshare. […] After filtering data were normalised per plate using a robust scaling approach (Pedregosa et al. 2011) that subtracts the median from each variable and divides it by the interquartile range. Individual wells were aggregated for downstream analysis by cell depot and day of differentiation.

subcutaneous adipocytes = assay: LipocyteProfiler of isoproterenol-treated vs DMSO-treated subcutaneous adipocytes (AMSCs, day 14); type: cell-based, human; conditions: subcutaneous adipocytes/AMSCs at day 14, isoproterenol
Description: For imaging, cells were seeded at 10K cells/well in 96-well plates (Cell Carrier, Perkin Elmer #6005550) and induced 4 days after seeding. For RNAseq, cells were seeded at 40K cells/well in 12-well dishes (Corning). […] Adipogenic differentiation was induced by changing culture medium to induction medium. […] Visceral-derived AMSCs were differentiated by further adding 2% FBS as well as 0.1 mM oleic and linoleic acid to the induction and differentiation media. For isoproterenol stimulation experiments, 1 μM isoproterenol was added to the differentiation media and cells treated overnight. Human primary AMSCs and PHH were plated in 96-well CellCarrier plates (Perkinelmer #6005550). AMSCs were differentiated for 14 days and high content imaging was performed at day 0, day 3, day 8 and day 14 of adipogenic differentiation. Primary human hepatocytes were stained after 48 h in culture, and 24h following treatment with oleic acid or metformin. […] Regions of cytoplasm were then determined by removing the Nuclei from the Cell segmentations. […] Second, every field was assessed visually and fields that were corrupted by experimental induced technical artifacts were removed. […]

## CC(C)NCC(O)c1ccc(O)c(O)c1 (stereo not shown) [isoproterenol]
Visceral adipocytes; 24 hour isoproterenol (1 μM) vs DMSO-treated controls, day 14, p=0.0413
  Mitochondrial Intensity: increases
Visceral adipocytes; 24 hour isoproterenol vs DMSO-treated controls, p=0.0092
  mitochondrial Texture_Entropy: differences; also recorded: increases
Visceral adipocytes; 24 hour isoproterenol vs DMSO-treated controls, p=0.032
  BODIPY Texture Entropy: decrease
Visceral adipocytes; 24 hour isoproterenol vs DMSO-treated controls, p=0.041
  BODIPY MedianIntensity: decrease
Visceral adipocytes
  BODIPY-related Granularity (lipid droplet sizes): decreased
Visceral adipocytes; listed as Isoproterenol
  BODIPY-related Granularity (lipid droplet sizes): reduces
Subcutaneous adipocytes
  effect on morphological profile: no effect
